# From ChEMBL document CHEMBL4840348, “Total Syntheses and Anti-inflammatory Activities of Syringin and Its Natural Analogues” (J Nat Prod, 2021)
# Columns and labels:
# RAW264.7 [1] = experiment: Cytotoxicity against mouse RAW264.7 cells assessed as reduction in cell viability at 100 uM measured after 24 hrs by MTT assay; format: cell-based; conditions: raw264.7, 24 h
# RAW264.7 [2] = experiment: Antiinflammatory activity in mouse RAW264.7 cells assessed as inhibition of LPS-induced NO production pretreated with compound for 2 hrs followed by LPS stimulation measured after 18 hrs by gGriess reagent based assay; format: functional, cell-based
SMILES,IC50 (RAW264.7 [2]) [µM],Activity (RAW264.7 [1])
COc1cc([C@@H](O)[C@@H](O)CO)cc(OC)c1O[C@@H]1O[C@H](CO)[C@@H](O)[C@H](O)[C@H]1O,15.4,Non-Toxic
COc1cc([C@H](O)[C@H](O)CO)cc(OC)c1O[C@@H]1O[C@H](CO)[C@@H](O)[C@H](O)[C@H]1O,25.1,Non-Toxic
COc1cc(/C=C/COC/C=C/c2cc(OC)c(O[C@@H]3O[C@H](CO)[C@@H](O)[C@H](O)[C@H]3O)c(OC)c2)cc(OC)c1O[C@@H]1O[C@H](CO)[C@@H](O)[C@H](O)[C@H]1O,> 100,Non-Toxic
Cc1ccc(-c2cc(C(F)(F)F)nn2-c2ccc(S(N)(=O)=O)cc2)cc1 [CELECOXIB],2.3,–
COc1cc(/C=C/C=O)cc(OC)c1O[C@@H]1O[C@H](CO)[C@@H](O)[C@H](O)[C@H]1O [SINAPALDEHYDE GLUCOSIDE],> 100,Non-Toxic
COc1cc(/C=C/CO)cc(OC)c1O[C@@H]1O[C@H](CO)[C@@H](O)[C@H](O)[C@H]1O [SYRINGIN],17.2,Non-Toxic

# Now from value to compound, other results behind:
IC50 (RAW264.7 [2]) [µM],SMILES,Activity (RAW264.7 [1])
14.6,COC/C=C/c1cc(OC)c(O[C@@H]2O[C@H](CO)[C@@H](O)[C@H](O)[C@H]2O)c(OC)c1,Non-Toxic
18.7,COc1cc(/C=C/C(=O)O)cc(OC)c1O[C@@H]1O[C@H](CO)[C@@H](O)[C@H](O)[C@H]1O,Non-Toxic
20.4,COC(=O)/C=C/c1cc(OC)c(O[C@@H]2O[C@H](CO)[C@@H](O)[C@H](O)[C@H]2O)c(OC)c1,Non-Toxic
> 100,CCOC/C=C/c1cc(OC)c(O[C@@H]2O[C@H](CO)[C@@H](O)[C@H](O)[C@H]2O)c(OC)c1,Non-Toxic
16.6,COc1cc(/C=C/CO[C@@H]2O[C@H](CO)[C@@H](O)[C@H](O)[C@H]2O)cc(OC)c1O[C@@H]1O[C@H](CO)[C@@H](O)[C@H](O)[C@H]1O,Non-Toxic
> 100,CCCCOC/C=C/c1cc(OC)c(O[C@@H]2O[C@H](CO)[C@@H](O)[C@H](O)[C@H]2O)c(OC)c1,Non-Toxic
> 100,COc1cc(CCCO)cc(OC)c1O[C@@H]1O[C@H](CO)[C@@H](O)[C@H](O)[C@H]1O [DIHYDROSYRINGIN],Non-Toxic
